The values that follow come from patent publication US20030125283A1, “Therapy of proliferative disorders by direct irradiation of cell nuclei with tritiated nuclear targetting agents” (priority 2002, published 2003).

For series [1] the following is noted: Caro, supra; cited from earlier work.
For series [2] the following is noted: mouse, in vivo.
Protocol: In the treatment and control groups, 10×10^6 BT-20 human breast cancer cells are inoculated subcutaneously into the flanks of the mice. Animal weights are recorded daily and animals are closely monitored for signs of illness. Approximate tumor volumes are measured every other day using calipers to measure the height (H), width (W), and length (L) of each tumor. Tumor volumes are calculated according to the formula for volume of an ellipsoid V=πHWL/6. Tumors grow to 300-500 mm^3 in approximately 3-4 weeks after inoculation. A set of 6 measurements per day is made on a single tumor in the control group on one day of each week to determine the standard deviation versus volume in the volume measurements.
Tumor growth is monitored for a total of 4 weeks, whereupon the mice are sacrificed and the tumors and other tissue are harvested.
Lines are drawn along the anterior-posterior length of the harvested tumors. In addition, the top, left and right of the harvested tumors is marked. […] A portion of the sample in is placed in Hionic-Fluor LSC cocktail and the radioactivity counted in a scintillation counter. […]
Ten to fifteen microliters of the dissolved tissue or is spotted on a silica gel TLC plate, and the plate is placed in a chromatography chamber containing ˜200 ml of eluant so the dissolved tissue sample is just above the eluant surface. […] The radioactivity is counted in the scintillation counter. […]
For the next series, the system named is BT-20 tumor xenografts. As to the kind of experiment: Reduction in tumor volume in the half-life study (Example 7). The note with it: each treatment subgroup, intratumoral 4 to 50 μCi/g tumor. The series is classed as in vivo, Nu/Nu female nude mice. The protocol: BT-20 tumor cells (10 million cells in 0.2 ml PBS) are inoculated into the right flank of each mouse as in Example 4 above. The tumors are grown to volumes of 300-500 mm^3 over the course of 3-4 weeks.
After tumors in all mice have reached the required 300-500 mm^3 volume, each group of 60 is divided into ten subgroups of six animals each.
Reduction in tumor volume is estimated as in Example 4 for each treatment subgroup over the course of the experiment. The data is analyzed by calculating the percentage of tumor reduction as in Example 4. The error in this measurement is determined from the measured standard deviation and the standard formula for calculating the error for a ratio given above in Equation 1. Systemic toxicity is not directly measured, but is monitored as described above in Example 4.

In series [3] the test system is Human BT-20 breast cancer tumors. Put plainly: Preliminary in vivo dose-response curve, single intratumoral injections (Example 8). The arrangement: species or system Nu/Nu female nude mice. The note with it: single intratumoral injection; theoretical. The source says:
Six experimental groups of 18 4-6 week old Nu/Nu female nude mice (Charles River Laboratory, Wilmington, Mass.) are used. In each of the six groups an additional group of 6 mice serves as an uninoculated control. Thus the total number of experimental mice is 108 and total number of uninoculated control mice is 36.
Each experimental group is then divided into two subgroups: one treatment subgroup of 12 mice and one untreated (but inoculated) control subgroup of six mice. […] Because the tumors have variable growth rates, subgroups are chosen such that the mean tumor volume and standard deviation are similar for each subgroup. […]
The mice are monitored daily and the tumors measured daily by microcaliper for a minimum of 3 weeks or until tumor re-growth begins. Tumor volumes are calculated as in Example 2. Three daily tumor volumes are measured for the first group so that the error in the volume measurement can be determined as in Example 4. The mean volumes and standard deviations are calculated and growth rate curves are monitored during the experiment. The data are expressed as percent difference of the tumor volume at any given time point to its pre-injection volume.
Tumor volume data is analyzed as described above in the in Example 4 by calculating percent tumor reduction and initial tumor volume. Systemic toxicity is not directly measured, but is monitored as described above in Example 4. […]

In series [4] the test system is BT20 human breast cancer tumors. Put plainly: Efficacy of a multiple dose regimen, intratumoral versus i.v. (Example 9). The series is classed as in vivo, female nude mice. The protocol:
To accomplish this, the superposition method of Sharget and Yu, supra, is used to extend the two compartment pharmacokinetic model presented in Example 6 from the single dose to the multidose case. […] Using the superposition method, the maximum and minimum of the multi-dose regimen can be averaged together to give an estimate of the mean concentration in the tumor during multiple injections (Sharget and Yu, supra).
This dose regimen is tested experimentally as follows.
60 4-6 weeks old female nude mice in 2 groups of 30 mice are used. Each group of 30 mice is further divided into two subgroups (10 control mice and 20 treatment mice). As before, the treatment mice will be divided into subgroups that consist of similar distribution of tumor volumes. In each treatment subgroup, 10×10^6 BT20 human breast cancer cells are inoculated subcutaneously in flanks of the mice as in Example 4. […] Tumors are grown to 300-500 mm^3 in volume.
The mice from one treatment subgroup receive an intratumoral injection of 16 μCi/20 μl normal saline (a dose of 32 μCi/gram of tumor). The dose is repeated every 7 days for a total of 3 doses.

Series [5] deals with 4047 colon cancer cells, BT-20 and MCF-7 breast cancer cell lines. As to the kind of experiment: Killing of tumor cells in vitro, cell counts and trypan blue viability. The series is classed as cell-based, rat (4047), human (BT-20. The protocol: In-vitro experiments were performed using cultured 4047 colon cancer cells as described in Gatenby, R A and Taylor D D (1990) Cancer Res. 50: 7997-8001. 4047 cells (2×10^4) were placed in each well of a 6-well plate and incubated overnight in 1 ml of RPMI-1640 media with 10% fetal bovine serum (FBS). The cells were divided into 4 groups as follows:
Group 4: incubated in unlabelled thymidine at concentrations 1, 2, 3, and 4 mM (so that concentration of thymidine was identical to that of the labeled thymidine in Group 3).
Each group was incubated for 24 hours and then washed 3 times in sterile physiologic saline (PBS). One milliliter of unlabelled media was added and the cells incubated for an additional 48 hours. Subsequently, the cells were washed with PBS, lifted with trypsin, and counted with a hematocytometer. Percent cell viability was determined by exclusion of trypan blue. All measurements were performed in triplicate. Once a dose-response curve was established in the 4047 cell line, identical experiments were conducted with the BT-20 and MCF-7 breast cancer cell lines.

With `[3H]` [tritium], in series [1], the effective biological half-life entry is “approximately 12 days”.

In the case of `Cc1cn([C@H]2C[C@H](O)[C@@H](CO)O2)c(=O)[nH]c1=O` [^3H-thymidine], in series [2], the “share of injected dose retained in the tumor” value is recorded as “about 10%”. Besides, the tumor volume result in the series with BT-20 tumor xenografts is recorded as “significant reduction in tumor volume”. Moreover, the “ED90, minimal effective dose for eradicating tumors in 90% of the treated mice” value in series [3] came out at 16 μCi/g tumor. The “r, tumor regression” value in series [4] (i.v. injection 16 μCi (~800 μCi/kg body wt.) once a week for three weeks, after three doses) is given as “approximately 0.8”; in series [4] (intratumoral 16 μCi/20 μl saline (32 μCi/gram of tumor) every 7 days, 3 doses), “approximately zero”. The antitumor effect entry in series [5] (0.1 μCi/ml (concentration used only with 4047 cells)) was “significant antitumor effect”. The “viable tumor cells identified” value in series [5] (populations exposed to 1.0 μCi/ml or greater, in most experiments) is on record as “few viable tumor cells”.

As for `Cc1cn([C@H]2C[C@H](O)[C@@H](CO)O2)c(=O)[nH]c1=O` [Unlabelled thymidine, thymidine, reference compound], the “effect on tumor growth” value in series [5] (unlabelled thymidine 1, 2, 3, and 4 mM, 24 hours incubation, then 48 hours in unlabelled media) was “no effect on tumor growth”.

With `[3H]O[3H]` [^3H-water, reference compound], in series [5] (0.1-3.0 μCi/ml media, 24 hours incubation, then 48 hours in unlabelled media, ^3H-water effect particularly above 1 μCi/ml, ^3H-thymidine compared with ^3H-water at each dose (p<<0.01)), the cytotoxicity result is “slight cytotoxicity”.
